# Measurements published in ChEMBL document CHEMBL4507299, “Data for DCP probe PF-04554878” (2021).
# Legend:
# [1] = molecular target: Mitogen-activated protein kinase kinase kinase kinase 5 (Homo sapiens) (UniProt Q9Y4K4)
# [2] = molecular target: 5-hydroxytryptamine receptor 2C (Homo sapiens) (UniProt P28335); settings: Compound concentration 10.0 uM
# [3] = test system: Mast/stem cell growth factor receptor Kit (Homo sapiens), P10721 [L576P]
# [4] = molecular target: Mitogen-activated protein kinase 1 (Homo sapiens) (UniProt P28482); experiment: MAPK1/ERK2 Invitrogen kinase activity assay; settings: Compound concentration 1.0 uM
# [5] = molecular target: cGMP-dependent protein kinase 2 (Homo sapiens) (UniProt Q13237)
# [6] = molecular target: Tyrosine-protein kinase JAK3 (Homo sapiens, UniProt P52333); experiment: JAK3 Invitrogen kinase activity assay
# [7] = molecular target: Platelet-derived growth factor receptor beta (Homo sapiens) (UniProt P09619)
# [8] = molecular target: Serine/threonine-protein kinase 25 (Homo sapiens) (UniProt O00506)
# [9] = molecular target: Tyrosine-protein kinase Lck (Homo sapiens) (UniProt P06239); experiment: LCK Invitrogen kinase activity assay; settings: Compound concentration 1.0 uM
# [10] = molecular target: ALK tyrosine kinase receptor (Homo sapiens) (UniProt Q9UM73)
# ALK tyrosine kinase receptor (Homo sapiens), sequence (Q9UM73 19-1620 limits assumed): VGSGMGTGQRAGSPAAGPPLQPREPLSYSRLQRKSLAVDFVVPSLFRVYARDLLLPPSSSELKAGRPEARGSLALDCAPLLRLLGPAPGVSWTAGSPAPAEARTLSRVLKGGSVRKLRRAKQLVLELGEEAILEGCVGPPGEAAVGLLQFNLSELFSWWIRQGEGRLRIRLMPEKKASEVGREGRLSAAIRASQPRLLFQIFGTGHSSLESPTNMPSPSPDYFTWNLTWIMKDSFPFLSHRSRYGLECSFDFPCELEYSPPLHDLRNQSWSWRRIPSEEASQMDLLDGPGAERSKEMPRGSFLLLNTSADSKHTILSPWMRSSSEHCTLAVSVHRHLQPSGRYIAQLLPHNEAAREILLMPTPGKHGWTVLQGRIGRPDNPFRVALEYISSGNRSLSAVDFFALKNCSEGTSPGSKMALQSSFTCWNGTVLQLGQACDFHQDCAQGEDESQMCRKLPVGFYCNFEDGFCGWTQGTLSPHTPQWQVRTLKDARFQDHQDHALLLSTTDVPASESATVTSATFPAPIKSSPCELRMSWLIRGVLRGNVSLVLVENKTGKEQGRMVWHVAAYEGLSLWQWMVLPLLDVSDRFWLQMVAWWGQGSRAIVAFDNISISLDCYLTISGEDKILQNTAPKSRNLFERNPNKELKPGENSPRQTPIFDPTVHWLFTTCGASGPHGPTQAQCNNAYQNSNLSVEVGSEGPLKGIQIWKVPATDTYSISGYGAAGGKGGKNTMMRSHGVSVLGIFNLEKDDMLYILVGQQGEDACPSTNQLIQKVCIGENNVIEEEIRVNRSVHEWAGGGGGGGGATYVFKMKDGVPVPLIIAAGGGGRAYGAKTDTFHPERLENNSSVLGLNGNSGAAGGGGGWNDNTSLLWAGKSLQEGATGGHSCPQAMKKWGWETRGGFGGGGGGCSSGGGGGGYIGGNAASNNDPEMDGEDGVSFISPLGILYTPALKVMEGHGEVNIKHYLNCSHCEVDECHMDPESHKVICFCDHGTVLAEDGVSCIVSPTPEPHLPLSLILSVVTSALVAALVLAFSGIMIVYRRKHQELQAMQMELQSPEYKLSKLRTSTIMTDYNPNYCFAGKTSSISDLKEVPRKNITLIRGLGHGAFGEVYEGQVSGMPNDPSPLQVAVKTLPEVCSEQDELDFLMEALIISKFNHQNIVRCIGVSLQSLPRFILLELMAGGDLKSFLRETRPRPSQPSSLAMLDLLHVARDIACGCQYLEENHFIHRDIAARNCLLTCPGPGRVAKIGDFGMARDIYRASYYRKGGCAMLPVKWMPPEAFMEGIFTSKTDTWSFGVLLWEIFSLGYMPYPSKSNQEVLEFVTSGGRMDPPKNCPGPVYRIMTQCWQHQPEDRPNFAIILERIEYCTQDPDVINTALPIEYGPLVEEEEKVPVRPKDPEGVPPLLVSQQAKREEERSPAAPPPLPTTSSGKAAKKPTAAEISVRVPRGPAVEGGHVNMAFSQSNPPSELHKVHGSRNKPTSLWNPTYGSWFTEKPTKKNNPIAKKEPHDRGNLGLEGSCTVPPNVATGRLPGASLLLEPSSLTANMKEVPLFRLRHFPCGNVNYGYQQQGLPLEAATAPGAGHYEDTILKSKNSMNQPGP
# [11] = molecular target: Dual specificity mitogen-activated protein kinase kinase 1 (Homo sapiens) (UniProt Q02750)
# [12] = molecular target: Mitogen-activated protein kinase kinase kinase 7 (Homo sapiens) (UniProt O43318)
# [13] = molecular target: Citron Rho-interacting kinase (Homo sapiens) (UniProt O14578)
# [14] = molecular target: D(1B) dopamine receptor (Homo sapiens) (UniProt P21918); settings: Compound concentration 10.0 uM
# [15] = molecular target: Serine/threonine-protein kinase ULK2 (Homo sapiens) (UniProt Q8IYT8)
# Serine/threonine-protein kinase ULK2 (Homo sapiens), sequence (Q8IYT8 whole entry): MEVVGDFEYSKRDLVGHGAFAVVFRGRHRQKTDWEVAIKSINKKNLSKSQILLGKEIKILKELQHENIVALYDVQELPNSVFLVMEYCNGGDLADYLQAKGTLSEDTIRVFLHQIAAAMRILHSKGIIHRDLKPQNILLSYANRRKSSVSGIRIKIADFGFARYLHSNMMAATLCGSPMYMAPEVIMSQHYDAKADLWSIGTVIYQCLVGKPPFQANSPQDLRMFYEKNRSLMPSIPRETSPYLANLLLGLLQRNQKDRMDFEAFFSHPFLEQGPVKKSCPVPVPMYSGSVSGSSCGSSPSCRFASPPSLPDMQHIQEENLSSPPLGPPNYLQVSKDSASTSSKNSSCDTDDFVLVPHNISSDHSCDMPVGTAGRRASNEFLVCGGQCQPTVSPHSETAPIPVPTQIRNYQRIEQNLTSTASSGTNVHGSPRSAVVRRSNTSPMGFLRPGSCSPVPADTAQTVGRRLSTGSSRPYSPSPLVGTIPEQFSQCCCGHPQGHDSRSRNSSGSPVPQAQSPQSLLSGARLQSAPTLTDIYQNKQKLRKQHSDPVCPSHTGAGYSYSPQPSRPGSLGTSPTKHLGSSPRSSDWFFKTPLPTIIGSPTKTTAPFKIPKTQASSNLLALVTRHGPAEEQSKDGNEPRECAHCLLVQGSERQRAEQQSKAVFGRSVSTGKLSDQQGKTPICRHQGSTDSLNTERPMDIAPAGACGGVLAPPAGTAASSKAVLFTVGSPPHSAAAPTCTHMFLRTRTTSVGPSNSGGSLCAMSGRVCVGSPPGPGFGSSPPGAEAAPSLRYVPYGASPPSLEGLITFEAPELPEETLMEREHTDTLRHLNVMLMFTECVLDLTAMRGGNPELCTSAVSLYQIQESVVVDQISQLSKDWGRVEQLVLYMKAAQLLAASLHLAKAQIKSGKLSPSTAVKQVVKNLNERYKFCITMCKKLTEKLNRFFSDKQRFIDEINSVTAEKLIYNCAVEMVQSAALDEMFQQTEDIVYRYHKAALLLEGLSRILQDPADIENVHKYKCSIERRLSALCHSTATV
# [16] = molecular target: 5-hydroxytryptamine receptor 7 (Homo sapiens) (UniProt P34969); settings: Compound concentration 10.0 uM
# [17] = molecular target: Phosphatidylinositol 4,5-bisphosphate 3-kinase catalytic subunit delta isoform (Homo sapiens) (UniProt O00329)
# [18] = molecular target: Serine/threonine-protein kinase RIO1 (Homo sapiens) (UniProt Q9BRS2)
# Serine/threonine-protein kinase RIO1 (Homo sapiens), sequence (Q9BRS2 whole entry): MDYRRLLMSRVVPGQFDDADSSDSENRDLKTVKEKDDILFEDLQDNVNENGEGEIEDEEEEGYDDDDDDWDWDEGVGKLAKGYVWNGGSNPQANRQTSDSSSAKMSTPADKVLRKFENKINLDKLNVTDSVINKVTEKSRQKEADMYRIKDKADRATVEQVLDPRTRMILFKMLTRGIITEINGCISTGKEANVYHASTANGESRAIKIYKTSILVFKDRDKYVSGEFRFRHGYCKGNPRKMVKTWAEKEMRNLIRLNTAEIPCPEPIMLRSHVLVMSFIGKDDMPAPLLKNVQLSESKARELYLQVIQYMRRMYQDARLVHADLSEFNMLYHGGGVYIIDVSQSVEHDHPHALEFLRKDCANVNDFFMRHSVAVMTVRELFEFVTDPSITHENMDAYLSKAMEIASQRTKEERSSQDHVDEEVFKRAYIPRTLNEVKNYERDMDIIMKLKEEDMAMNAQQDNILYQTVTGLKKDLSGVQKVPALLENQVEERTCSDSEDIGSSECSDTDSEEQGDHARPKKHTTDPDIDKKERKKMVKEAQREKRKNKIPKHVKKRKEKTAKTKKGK
# [19] = molecular target: Homeodomain-interacting protein kinase 4 (Homo sapiens) (UniProt Q8NE63)
# [20] = molecular target: Activin receptor type-2B (Homo sapiens) (UniProt Q13705)
# [21] = test system: Mast/stem cell growth factor receptor Kit (Homo sapiens), P10721 [V559D]
# Mast/stem cell growth factor receptor Kit (Homo sapiens), P10721 [V559D], sequence (P10721 whole entry V559D): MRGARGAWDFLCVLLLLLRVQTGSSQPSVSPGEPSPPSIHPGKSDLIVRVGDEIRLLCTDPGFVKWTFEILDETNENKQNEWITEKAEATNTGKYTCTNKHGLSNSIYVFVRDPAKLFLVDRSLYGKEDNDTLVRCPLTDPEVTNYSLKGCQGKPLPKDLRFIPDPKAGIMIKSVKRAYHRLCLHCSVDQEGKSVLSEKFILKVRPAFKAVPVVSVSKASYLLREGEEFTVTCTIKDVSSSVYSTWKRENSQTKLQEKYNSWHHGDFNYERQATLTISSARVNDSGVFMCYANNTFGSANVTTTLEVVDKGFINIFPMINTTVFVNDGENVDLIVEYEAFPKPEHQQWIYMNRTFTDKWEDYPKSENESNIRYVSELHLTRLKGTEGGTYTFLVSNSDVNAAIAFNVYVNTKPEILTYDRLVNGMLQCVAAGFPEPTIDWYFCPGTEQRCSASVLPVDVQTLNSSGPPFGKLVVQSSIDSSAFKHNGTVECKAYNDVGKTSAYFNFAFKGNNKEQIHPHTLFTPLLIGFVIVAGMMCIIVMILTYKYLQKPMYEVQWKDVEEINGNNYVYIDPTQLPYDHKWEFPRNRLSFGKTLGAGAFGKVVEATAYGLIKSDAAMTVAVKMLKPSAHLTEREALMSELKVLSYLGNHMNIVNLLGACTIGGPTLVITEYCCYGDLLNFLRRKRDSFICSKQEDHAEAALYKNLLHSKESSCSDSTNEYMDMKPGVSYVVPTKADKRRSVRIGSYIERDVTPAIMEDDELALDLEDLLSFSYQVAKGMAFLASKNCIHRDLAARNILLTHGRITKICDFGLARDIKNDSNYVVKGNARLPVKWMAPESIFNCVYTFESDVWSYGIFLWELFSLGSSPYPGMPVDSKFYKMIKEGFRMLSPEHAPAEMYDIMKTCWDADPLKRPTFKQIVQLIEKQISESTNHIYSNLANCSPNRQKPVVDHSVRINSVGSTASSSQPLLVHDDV
# [22] = molecular target: Histamine H3 receptor (Homo sapiens) (UniProt Q9Y5N1); settings: Compound concentration 10.0 uM
# [23] = molecular target: 5-hydroxytryptamine receptor 2A (Homo sapiens) (UniProt P28223); settings: Compound concentration 10.0 uM
# [24] = test system: Mast/stem cell growth factor receptor Kit (Homo sapiens), P10721 [V559D,T670I]
# Mast/stem cell growth factor receptor Kit (Homo sapiens), P10721 [V559D,T670I], sequence (P10721 whole entry V559D/T670I): as the sequence (P10721 whole entry V559D) above, with T670I counted along it
# [25] = molecular target: Mitogen-activated protein kinase kinase kinase 20 (Homo sapiens) (UniProt Q9NYL2)
# Mitogen-activated protein kinase kinase kinase 20 (Homo sapiens), sequence (Q9NYL2 2-800 limits assumed): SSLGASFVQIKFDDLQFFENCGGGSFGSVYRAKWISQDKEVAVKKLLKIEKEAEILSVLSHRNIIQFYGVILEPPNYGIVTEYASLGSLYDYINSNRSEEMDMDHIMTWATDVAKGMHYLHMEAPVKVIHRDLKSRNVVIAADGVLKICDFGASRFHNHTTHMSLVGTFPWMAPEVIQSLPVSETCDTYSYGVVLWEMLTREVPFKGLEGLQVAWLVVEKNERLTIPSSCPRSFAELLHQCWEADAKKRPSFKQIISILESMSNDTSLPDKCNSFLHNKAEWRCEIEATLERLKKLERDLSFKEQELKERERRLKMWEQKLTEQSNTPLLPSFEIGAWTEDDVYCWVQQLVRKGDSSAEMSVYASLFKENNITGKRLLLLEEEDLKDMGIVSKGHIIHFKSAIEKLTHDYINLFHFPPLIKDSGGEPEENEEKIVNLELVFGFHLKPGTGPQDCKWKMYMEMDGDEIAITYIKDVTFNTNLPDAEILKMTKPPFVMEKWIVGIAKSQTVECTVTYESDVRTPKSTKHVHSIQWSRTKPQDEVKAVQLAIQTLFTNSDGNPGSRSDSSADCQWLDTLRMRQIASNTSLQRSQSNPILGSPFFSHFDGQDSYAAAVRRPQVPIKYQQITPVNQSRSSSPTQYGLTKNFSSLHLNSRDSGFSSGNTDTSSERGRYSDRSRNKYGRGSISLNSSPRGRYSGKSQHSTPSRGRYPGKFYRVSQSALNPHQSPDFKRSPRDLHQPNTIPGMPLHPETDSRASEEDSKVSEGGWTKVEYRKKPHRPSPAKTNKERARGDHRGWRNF
# Aurora kinase A = Aurora kinase A (Homo sapiens, UniProt O14965); experiment: Aurora-A Invitrogen kinase activity assay
# [26] = test system: Tyrosine-protein kinase ABL1 (Homo sapiens), P00519 [F317L]
# [27] = molecular target: Cyclin-dependent kinase 3 (Homo sapiens) (UniProt Q00526)
# [28] = molecular target: Mitogen-activated protein kinase kinase kinase 6 (Homo sapiens) (UniProt O95382)
# [29] = molecular target: Tyrosine-protein kinase Lyn (Homo sapiens, UniProt P07948); experiment: Cerep profiling assay (LYN); set-up: compound concentration 10 uM
# [30] = molecular target: Fibroblast growth factor receptor 1 (Homo sapiens) (UniProt P11362); experiment: FGFR1 Invitrogen kinase activity assay; settings: Compound concentration 1.0 uM
# [31] = molecular target: Serine/threonine-protein kinase Nek11 (Homo sapiens) (UniProt Q8NG66)
# [32] = test system: Tyrosine-protein kinase ABL1 (Homo sapiens), P00519 [Q252H]
# [33] = test system: eIF-2-alpha kinase GCN2 (Homo sapiens), Q9P2K8 [S808G]
# [34] = molecular target: Serine/threonine-protein kinase Chk2 (Homo sapiens) (UniProt O96017)
# Adenosine receptor A3 = Adenosine receptor A3 (Homo sapiens, UniProt P0DMS8); experiment: Cerep profiling assay (ADORA3); set-up: compound concentration 10 uM
# [35] = molecular target: Calcium-dependent protein kinase 1 (Plasmodium falciparum) (UniProt P62344)
# [36] = molecular target: Myosin-IIIb (Homo sapiens) (UniProt Q8WXR4)
# [37] = molecular target: Mitogen-activated protein kinase 6 (Homo sapiens) (UniProt Q16659)
# [38] = molecular target: High affinity nerve growth factor receptor (Homo sapiens) (UniProt P04629); settings: Compound concentration 1.0 uM
# [39] = molecular target: Dual specificity mitogen-activated protein kinase kinase 3 (Homo sapiens) (UniProt P46734)
# Focal adhesion kinase 1 = Focal adhesion kinase 1 (Homo sapiens, UniProt Q05397); experiment: Binding assay (PTK2)
# [40] = molecular target: D(2) dopamine receptor (Homo sapiens) (UniProt P14416); settings: Compound concentration 10.0 uM
# [41] = Compound concentration 100.0 nM
# [42] = Compound concentration 1000.0 nM
# Mast/stem cell growth factor receptor Kit (Homo sapiens), P10721 [L576P], sequence (P10721 whole entry L576P): as the sequence (P10721 whole entry V559D) above, with D559V, L576P counted along it
smiles,measurement,setting,value
CNC(=O)c1ccc(Nc2ncc(C(F)(F)F)c(NCc3nccnc3N(C)S(C)(=O)=O)n2)cc1 [DEFACTINIB],residual activity,[1]; [41],100%
same,inhibition,[2],16.9%
same,residual activity,[3]; [41],86%
same,inhibition,[4],35%
same,residual activity,[5]; [41],100%
same,IC50,[6],> 1000 nM
same,residual activity,[7]; [41],83%
same,residual activity,[8]; [41],85%
same,inhibition,[9],39%
same,residual activity,[10]; [41],58%
same,residual activity,[11]; [41],100%
same,residual activity,[12]; [41],57%
same,residual activity,[13]; [41],68%
same,inhibition,[14],-7.46%
same,residual activity,[15]; [41],75%
same,inhibition,[16],5.31%
same,residual activity,[17]; [41],90%
same,residual activity,[18]; [41],100%
same,residual activity,[19]; [41],54%
same,residual activity,[20]; [41],100%
same,residual activity,[21]; [41],92%
same,inhibition,[22],-7.94%
same,inhibition,[23],0.93%
same,residual activity,[24]; [41],100%
same,residual activity,[25]; [41],100%
same,IC50,Aurora kinase A,135 nM
same,residual activity,[26]; [41],93%
same,residual activity,[27]; [41],100%
same,residual activity,[28]; [41],90%
same,IC50,[29],1100 nM (not active)
same,inhibition,[30],64%
same,residual activity,[31]; [41],89%
same,residual activity,[32]; [41],100%
same,residual activity,[33]; [41],27%
same,residual activity,[34]; [41],100%
same,Ki,Adenosine receptor A3,27 nM
same,residual activity,[35]; [41],85%
same,residual activity,[36]; [41],100%
same,residual activity,[37]; [41],71%
same,inhibition,[38],97%
same,residual activity,[39]; [41],48%
CN(c1ccnc(CNc2nc(Nc3ccc4c(c3)CC(=O)N4)ncc2C(F)(F)F)n1)S(C)(=O)=O [PF-00911705],residual activity,[1]; [42],72%
same,inhibition,[2],8.11%
same,IC50,Focal adhesion kinase 1,721 nM (not active)
same,residual activity,[3]; [42],66%
same,residual activity,[5]; [42],68%
same,residual activity,[7]; [42],69%
same,residual activity,[8]; [42],82%
same,residual activity,[10]; [42],81%
same,residual activity,[11]; [42],85%
same,residual activity,[12]; [42],48%
same,residual activity,[13]; [42],99%
same,inhibition,[14],-0.97%
same,residual activity,[15]; [42],5.4%
same,inhibition,[16],-4.55%
same,residual activity,[17]; [42],77%
same,residual activity,[18]; [42],9.7%
same,residual activity,[19]; [42],35%
same,residual activity,[20]; [42],73%
same,residual activity,[21]; [42],75%
same,inhibition,[22],12.9%
same,inhibition,[23],4.75%
same,residual activity,[24]; [42],100%
same,residual activity,[25]; [42],100%
same,inhibition,[40],9.12%
same,residual activity,[26]; [42],84%
same,residual activity,[27]; [42],90%
same,residual activity,[28]; [42],73%
same,residual activity,[31]; [42],100%
same,residual activity,[32]; [42],49%
same,residual activity,[33]; [42],6.7%
same,residual activity,[34]; [42],0%
same,residual activity,[35]; [42],84%
same,residual activity,[36]; [42],68%
same,residual activity,[37]; [42],66%
same,residual activity,[39]; [42],58%
